Measured values published in ChEMBL document CHEMBL1145177, “Further naphthylcombretastatins. An investigation on the role of the naphthalene moiety” (J Med Chem, 2005).

Experiments:
Format in all cases: functional, cell-based
[1] = test system: HT-29; test: Inhibitory concentration value against human colon adenocarcinoma HT-29 tumor cell line
[2] = test system: P388; test: Inhibitory concentration value against murine P-388 tumor cell line; conditions: Mus musculus
[3] = Inhibitory concentration value against human MEL-28 or human cancer HeLa tumor cell line
[4] = test system: A549; test: Inhibitory concentration value against human A-549 tumor cell line
[5] = test system: HL-60; test: Inhibitory concentration value against human colon carcinoma H-116 or human cancer HL-60 tumor cell line
[6] = test system: SK-MEL-28; test: Inhibitory concentration value against human MEL-28 tumor cell line
[7] = test system: HCT-116; test: Inhibitory concentration value against human colon carcinoma H-116 tumor cell line

Row | IC50 [1] [µM] | IC50 [2] [µM] | IC50 [3] [µM] | IC50 [4] [µM] | IC50 [5] [µM] | IC50 [6] [µM] | IC50 [7] [µM] | Compound
1 | > 5 | > 5 | > 5 | > 5 | > 5 |  |  | COc1cc(/C=C\c2ccc3ccccc3c2)cc(NC(C)=O)c1OC
2 | 3.5 | 3.5 |  | 3.5 |  | 3.5 | 3.5 | FC(F)(F)Oc1cccc(/C=C\c2ccc3ccccc3c2)c1
3 | 3.23 | 3.23 | 3.23 | 3.23 | 3.23 |  |  | COc1cc(/C=C/c2c[nH]c3ccccc23)cc(OC)c1OC
4 | > 5 | > 5 |  | > 5 |  | > 5 | > 5 | CC(=O)Oc1ccc(/C=C/c2ccc3ccccc3c2)cc1
5 | > 5 | > 5 |  | > 5 |  | > 5 | > 5 | Cc1ccc(/C=C\c2ccc3ccccc3c2)cc1
6 | > 5 | 5 | > 5 | > 5 | 5 |  |  | COc1c(N)cc(/C=C\c2ccc3ccccc3c2)cc1N
7 | > 5 | > 5 | > 5 | > 5 | > 5 |  |  | COc1c([N+](=O)[O-])cc(/C=C\c2ccc3ccccc3c2)cc1[N+](=O)[O-]
8 | > 5 | > 5 | > 5 | > 5 | > 5 |  |  | COc1cc(/C=C\c2ccc3c(ccn3S(=O)(=O)c3ccccc3)c2)cc(OC)c1OC
9 | > 5 | > 5 | > 5 | > 5 | > 5 |  |  | COc1cc(/C=C/c2ccc(N(C)C)c([N+](=O)[O-])c2)cc(OC)c1OC
10 | > 5 | > 5 |  | > 5 |  | > 5 | > 5 | FC(F)(F)c1ccc(/C=C\c2ccc3ccccc3c2)cc1
11 | > 5 | > 5 | > 5 | > 5 | 2.88 |  |  | COc1cc(/C=C/c2ccc3ccccc3c2)cc(NC(C)=O)c1OC
12 | 3.66 | 3.66 |  | 3.66 |  | 3.66 | 3.66 | CN(C)c1ccc(/C=C\c2ccc3ccccc3c2)cc1
13 | 2.99 | 2.99 |  | 2.99 |  | 2.99 | 2.99 | COCCOc1cc(/C=C\c2ccc3ccccc3c2)ccc1OC
14 | 3.09 | 3.09 | 3.09 | 3.09 | 3.09 |  |  | COc1cc(/C=C\c2cn(C)c3ccccc23)cc(OC)c1OC
15 | > 5 | > 5 | > 5 | > 5 | > 5 |  |  | COc1c(N)cc(/C=C/c2ccc3ccccc3c2)cc1N
16 | > 5 | > 5 |  | > 5 |  | > 5 | > 5 | C(=C/c1ccc2ccccc2c1)/c1ccoc1
17 | > 5 | > 5 |  | > 5 |  | > 5 | > 5 | C(=C\c1ccco1)/c1ccc2ccccc2c1
18 | > 5 | > 5 | > 5 | > 5 | > 5 |  |  | COc1cc(/C=C/c2cn(C(C)=O)c3ccccc23)cc(OC)c1OC
19 | > 5 | > 5 |  | > 5 |  | > 5 | > 5 | C(=C\c1ccc2ccccc2c1)/c1ccc2c(c1)-c1ccccc1C2
20 | > 5 | > 5 |  | > 5 |  | > 5 | > 5 | Cc1ccc(/C=C/c2ccc3ccccc3c2)cc1
21 | > 5 | > 5 |  | > 5 |  | > 5 | > 5 | FC(F)(F)Oc1ccc(/C=C/c2ccc3ccccc3c2)cc1
22 | > 5 | > 5 |  | 1.82 |  | > 5 | 1.82 | COc1ccc(/C=C/c2ccc3ccccc3c2)cc1N
23 | > 5 | 2.99 |  | 2.99 |  | 2.99 | > 5 | COCCOc1cc(/C=C/c2ccc3ccccc3c2)ccc1OC
24 | > 5 | > 5 |  | > 5 |  | > 5 | > 5 | Cn1ccc2cc(/C=C\c3ccc4ccccc4c3)ccc21
25 | 3.28 | > 20 |  | > 20 |  | > 20 | > 20 | COc1ccc(/C=C\c2ccc3ccccc3c2)cc1[N+](=O)[O-]
26 | > 5 | > 5 |  | 3.53 |  | > 5 | > 5 | Cn1ccc2cc(/C=C/c3ccc4ccccc4c3)ccc21
27 | > 5 | > 5 | > 5 | > 5 | > 5 |  |  | COc1cc(/C=C\c2ccc(N(C)C)c([N+](=O)[O-])c2)cc(OC)c1OC
28 | > 5 | > 5 |  | > 5 |  | > 5 | > 5 | O=S(=O)(c1ccccc1)n1ccc2cc(/C=C/c3ccc4ccccc4c3)ccc21

Row | IC50 [1] [µM] | IC50 [2] [µM] | IC50 [3] [µM] | IC50 [4] [µM] | IC50 [5] [µM] | IC50 [6] [µM] | IC50 [7] [µM] | Compound
29 | > 5 | > 5 |  | > 5 |  | > 5 | > 5 | C(=C/c1ccc2[nH]ccc2c1)/c1ccc2ccccc2c1
30 | > 5 | > 5 |  | > 5 |  | > 5 | > 5 | COc1ccc(/C=C/c2ccc3ccccc3c2)cc1
31 | 3.09 | 3.09 | 3.09 | 3.09 | 3.09 |  |  | COc1cc(/C=C/c2cn(C)c3ccccc23)cc(OC)c1OC
32 | 3.57 | 3.57 |  | 3.57 |  | 3.57 | 3.57 | C(=C/c1cccc2ccccc12)/c1ccc2ccccc2c1
33 | 1.82 | 1.82 |  | > 20 |  | > 20 | 0.36 | COc1ccc(/C=C\c2ccc3ccccc3c2)cc1N
34 | 3.66 | 3.66 |  | 3.66 |  | 3.66 | 3.66 | CN(C)c1ccc(/C=C/c2ccc3ccccc3c2)cc1
35 | 4.06 | 4.06 |  | 4.06 |  | 4.06 | 4.06 | Oc1ccc(/C=C/c2ccc3ccccc3c2)cc1
36 | 2.85 | 2.85 | 2.85 | 2.85 | 2.85 |  |  | COc1cc(/C=C\c2cn(C(C)=O)c3ccccc23)cc(OC)c1OC
37 | > 5 | 4.49 |  | > 5 |  | > 5 | > 5 | COc1ccc(/C=C/c2ccc3ccccc3c2)cc1F
38 | > 5 | > 5 |  | > 5 |  | > 5 | > 5 | CCN(CC)c1cc(/C=C/c2ccc3ccccc3c2)ccc1OC
39 | > 5 | > 5 |  | > 5 |  | > 5 | > 5 | FC(F)(F)c1ccc(/C=C/c2ccc3ccccc3c2)cc1
40 | > 5 | > 5 |  | > 5 |  | > 5 | > 5 | C(=C/c1ccc2ccccc2c1)/c1ccc2c(c1)-c1ccccc1C2
41 | 0.33 | 1.64 | 1.64 | 1.64 | 0.33 |  |  | COc1cc(/C=C\c2ccc3ccccc3c2)cc(N)c1OC
42 | > 5 | > 5 | > 5 | > 5 | > 5 |  |  | COc1c([N+](=O)[O-])cc(/C=C/c2ccc3ccccc3c2)cc1[N+](=O)[O-]
43 | > 5 | > 5 |  | > 5 |  | > 5 | > 5 | C(=C\c1ccc2ccccc2c1)/c1ccoc1
44 | 3.23 | 3.23 | 3.23 | 3.23 | 3.23 |  |  | COc1cc(/C=C\c2c[nH]c3ccccc23)cc(OC)c1OC
45 | 3.65 | 3.65 | 3.65 | 3.65 | 3.65 |  |  | COc1cc(/C=C/c2occc2C)cc(OC)c1OC
46 | > 5 | > 5 |  | > 5 |  | > 5 | > 5 | COc1ccc(/C=C/c2ccc3ccccc3c2)cc1C(=O)CN
47 | > 5 | > 5 | > 5 | > 5 | > 5 |  |  | COc1cc(/C=C/c2ccc3c(ccn3S(=O)(=O)c3ccccc3)c2)cc(OC)c1OC
48 | 0.3 | 1.52 | 1.52 | 1.52 | 1.52 |  |  | COc1cc(/C=C/c2ccc(N(C)C)c(N)c2)cc(OC)c1OC
49 | > 5 | > 5 |  | > 5 |  | > 5 | > 5 | O=S(=O)(c1ccccc1)n1ccc2cc(/C=C\c3ccc4ccccc4c3)ccc21
50 | 2.75 | > 5 | > 5 | > 5 | 2.75 |  |  | CN(C)c1c([N+](=O)[O-])cc(/C=C\c2ccc3ccccc3c2)cc1[N+](=O)[O-]
51 | > 5 | > 5 |  | > 5 |  | > 5 | > 5 | COc1ccc(/C=C/c2ccc3ccccc3c2)cc1[N+](=O)[O-]
52 | > 5 | > 5 |  | > 5 |  | > 5 | > 5 | Cn1c2ccccc2c2cc(/C=C\c3ccc4ccccc4c3)ccc21
53 | > 5 | > 5 |  | > 5 |  | > 5 | > 5 | Cn1c2ccccc2c2cc(/C=C/c3ccc4ccccc4c3)ccc21
54 | > 5 | > 5 |  | > 5 |  | > 5 | > 5 | C(=C/c1ccco1)/c1ccc2ccccc2c1
55 | > 5 | > 5 |  | 1.58 |  | > 5 | > 5 | COc1ccc(/C=C\c2ccc3ccccc3c2)cc1C(=O)CN
